Values after ≈ are worked out from the molar mass of the structure shown.
Experiments:
[1] = target: Muscarinic acetylcholine receptor M1 (Homo sapiens, UniProt P11229); experiment: Positive allosteric modulation of human M1 receptor
[2] = Hepatic clearance in rat; type: ADME; details: in vivo
[3] = Unbound brain-to-plasma concentration ratio in Sprague-Dawley rat at 0.1 to 0.2 mg/kg, iv measured after 0.25 hrs; type: ADME, organism-based; details: dose 0.1-0.2 mg/kg, read-out: K(p,uu,brain)
P-gp = experiment: Substrate activity at human P-gp expressed in MDCK-MDR1 cells assessed as efflux ratio; type: ADME, cell-based
[4] = Solubility of the compound in FaSSIF; type: physicochemical
[5] = target: Muscarinic acetylcholine receptor M4 (Rattus norvegicus, UniProt P08485); experiment: Positive allosteric modulation of rat M4 receptor
Muscarinic acetylcholine receptor M4, sequence (P08485 whole entry): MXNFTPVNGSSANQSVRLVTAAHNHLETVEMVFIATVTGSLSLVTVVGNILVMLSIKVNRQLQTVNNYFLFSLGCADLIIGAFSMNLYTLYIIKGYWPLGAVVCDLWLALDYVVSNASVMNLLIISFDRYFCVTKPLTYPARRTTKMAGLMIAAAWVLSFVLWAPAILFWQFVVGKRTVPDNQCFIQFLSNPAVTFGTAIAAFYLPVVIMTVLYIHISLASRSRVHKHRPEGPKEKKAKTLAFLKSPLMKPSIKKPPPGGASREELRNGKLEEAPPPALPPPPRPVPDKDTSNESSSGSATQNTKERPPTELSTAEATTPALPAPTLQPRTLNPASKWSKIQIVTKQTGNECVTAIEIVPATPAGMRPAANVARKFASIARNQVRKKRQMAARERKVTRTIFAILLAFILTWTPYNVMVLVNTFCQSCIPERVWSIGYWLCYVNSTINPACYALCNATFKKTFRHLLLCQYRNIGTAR

[6] = Positive allosteric modulation of dog M4 receptor; parameters: species or system Canis lupus familiaris
Cytochrome P450 1A2 = Cytochrome P450 1A2 (Homo sapiens, UniProt P05177); experiment: Inhibition of CYP1A2 (unknown origin); type: ADME
Cytochrome P450 1A2, sequence (P05177 whole entry): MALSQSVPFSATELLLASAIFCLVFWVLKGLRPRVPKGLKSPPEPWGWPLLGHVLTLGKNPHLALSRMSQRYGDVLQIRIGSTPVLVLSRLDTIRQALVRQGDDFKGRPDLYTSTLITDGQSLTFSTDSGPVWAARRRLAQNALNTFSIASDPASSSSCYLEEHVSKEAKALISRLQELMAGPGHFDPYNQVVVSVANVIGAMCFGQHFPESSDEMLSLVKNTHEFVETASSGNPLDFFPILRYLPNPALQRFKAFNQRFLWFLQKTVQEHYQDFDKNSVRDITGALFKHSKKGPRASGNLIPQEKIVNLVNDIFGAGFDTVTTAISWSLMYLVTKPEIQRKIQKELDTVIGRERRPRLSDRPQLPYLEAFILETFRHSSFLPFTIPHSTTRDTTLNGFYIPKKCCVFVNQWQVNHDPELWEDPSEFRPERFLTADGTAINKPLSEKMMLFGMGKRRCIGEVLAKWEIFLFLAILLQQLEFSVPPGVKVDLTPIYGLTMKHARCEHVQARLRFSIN

[7] = Half life in rat; type: ADME; details: in vivo
[8] = Volume of distribution at steady state in cynomolgus monkey; type: ADME, Macaca fascicularis; details: in vivo, read-out: Vdss
[9] = target: D(2) dopamine receptor (Homo sapiens) (UniProt P14416); experiment: Displacement of [3H]Spiperone from full length human dopamine D2S receptor expressed in CHO cells assessed as residual binding level for radioligand at 10 uM after 120 mins by radiometric scintillation analysis relative to control; type: cell-based
D(2) dopamine receptor (Homo sapiens), sequence (P14416 whole entry): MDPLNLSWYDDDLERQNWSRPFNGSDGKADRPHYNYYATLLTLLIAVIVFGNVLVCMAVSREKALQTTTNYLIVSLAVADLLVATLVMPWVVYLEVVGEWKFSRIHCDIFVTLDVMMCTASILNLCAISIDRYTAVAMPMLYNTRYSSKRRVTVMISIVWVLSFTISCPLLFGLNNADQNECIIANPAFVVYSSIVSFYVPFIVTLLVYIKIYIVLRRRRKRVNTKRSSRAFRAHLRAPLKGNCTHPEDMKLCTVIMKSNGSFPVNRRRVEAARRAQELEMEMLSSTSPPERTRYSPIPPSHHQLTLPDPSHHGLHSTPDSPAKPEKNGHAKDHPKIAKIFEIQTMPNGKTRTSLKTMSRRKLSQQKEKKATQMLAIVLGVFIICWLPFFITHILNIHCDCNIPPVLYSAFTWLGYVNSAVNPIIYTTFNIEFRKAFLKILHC

[10] = target: Sodium-dependent dopamine transporter (Homo sapiens) (UniProt Q01959); experiment: Displacement of [125I]RTI-55 from full length recombinant human dopamine transporter expressed in CHO-S cells assessed as residual binding level for radioligand at 10 uM after 180 mins by radiometric scintillation analysis relative to control; type: cell-based
Sodium-dependent dopamine transporter (Homo sapiens), sequence (Q01959 whole entry): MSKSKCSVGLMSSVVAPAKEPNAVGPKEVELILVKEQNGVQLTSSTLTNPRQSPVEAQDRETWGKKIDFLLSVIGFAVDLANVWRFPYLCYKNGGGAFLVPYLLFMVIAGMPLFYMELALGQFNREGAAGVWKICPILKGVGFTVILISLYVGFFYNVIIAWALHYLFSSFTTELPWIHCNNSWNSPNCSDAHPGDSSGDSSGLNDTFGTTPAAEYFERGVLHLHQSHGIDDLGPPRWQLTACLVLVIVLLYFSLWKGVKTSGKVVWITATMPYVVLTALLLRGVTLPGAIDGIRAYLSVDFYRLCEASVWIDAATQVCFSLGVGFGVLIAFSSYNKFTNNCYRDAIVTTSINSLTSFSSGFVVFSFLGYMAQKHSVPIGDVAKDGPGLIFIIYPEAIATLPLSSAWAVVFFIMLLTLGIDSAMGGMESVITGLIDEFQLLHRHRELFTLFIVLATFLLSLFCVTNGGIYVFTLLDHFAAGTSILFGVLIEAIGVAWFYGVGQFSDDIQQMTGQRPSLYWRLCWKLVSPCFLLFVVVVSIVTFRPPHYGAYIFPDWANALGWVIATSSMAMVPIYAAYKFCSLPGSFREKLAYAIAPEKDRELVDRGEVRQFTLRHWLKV

[11] = target: Sodium-dependent noradrenaline transporter (Homo sapiens) (UniProt P23975); experiment: Displacement of [125I]RTI-55 from full length recombinant human NET expressed in MDCK cells assessed as residual binding level for radioligand at 10 uM after 180 mins by radiometric scintillation analysis relative to control; type: cell-based
Sodium-dependent noradrenaline transporter (Homo sapiens), sequence (P23975 whole entry): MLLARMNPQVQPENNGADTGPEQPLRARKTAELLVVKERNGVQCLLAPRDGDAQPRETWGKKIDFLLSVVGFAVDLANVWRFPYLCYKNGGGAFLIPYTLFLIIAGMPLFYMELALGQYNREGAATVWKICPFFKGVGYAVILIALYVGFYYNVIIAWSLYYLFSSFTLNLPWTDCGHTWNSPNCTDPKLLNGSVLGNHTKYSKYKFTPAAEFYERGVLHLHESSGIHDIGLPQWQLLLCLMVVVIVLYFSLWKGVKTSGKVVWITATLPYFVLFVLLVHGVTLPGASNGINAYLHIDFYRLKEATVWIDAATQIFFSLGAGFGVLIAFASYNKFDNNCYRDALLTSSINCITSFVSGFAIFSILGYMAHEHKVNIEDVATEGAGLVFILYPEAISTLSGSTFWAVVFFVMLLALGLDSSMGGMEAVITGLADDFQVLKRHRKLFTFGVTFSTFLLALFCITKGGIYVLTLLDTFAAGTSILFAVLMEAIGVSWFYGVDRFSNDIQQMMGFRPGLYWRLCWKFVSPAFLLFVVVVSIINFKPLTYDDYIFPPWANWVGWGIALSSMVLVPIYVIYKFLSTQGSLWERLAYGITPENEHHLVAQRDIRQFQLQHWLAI

[12] = target: 5-hydroxytryptamine receptor 1A (Homo sapiens) (UniProt P08908); experiment: Displacement of [3H]-8-OH-DPAT from full length recombinant human 5HT1A receptor expressed in CHO-K1 cells assessed as residual binding level for radioligand at 10 uM incubated for 60 mins by radiometric scintillation analysis relative to control; type: cell-based
[13] = target: Adenosine receptor A1 (Homo sapiens) (UniProt P30542); experiment: Displacement of [3H]DPCPX from recombinant full length human adenosine A1 receptor expressed in CHO-K1 cells assessed as residual binding level for radioligand at 10 uM incubated for 90 mins radiometric scintillation analysis relative to control; type: cell-based
Adenosine receptor A1 (Homo sapiens), sequence (P30542 whole entry): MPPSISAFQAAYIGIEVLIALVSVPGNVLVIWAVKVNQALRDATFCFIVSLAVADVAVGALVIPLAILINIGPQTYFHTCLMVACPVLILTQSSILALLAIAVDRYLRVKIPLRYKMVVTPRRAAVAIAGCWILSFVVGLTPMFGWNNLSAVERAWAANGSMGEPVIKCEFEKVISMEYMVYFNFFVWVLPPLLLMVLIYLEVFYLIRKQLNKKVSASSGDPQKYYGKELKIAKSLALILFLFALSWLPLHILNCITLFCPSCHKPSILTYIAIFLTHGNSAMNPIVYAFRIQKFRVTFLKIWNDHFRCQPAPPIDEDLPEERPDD

[14] = target: Adenosine receptor A3 (Homo sapiens) (UniProt P0DMS8); experiment: Displacement of [125I]AB-MECA from recombinant full length human adenosine A3 receptor expressed in CHO-K1 cells assessed as residual binding level for radioligand at 10 uM after 60 mins by radiometric scintillation analysis relative to control; type: cell-based
Adenosine receptor A3 (Homo sapiens), sequence (P0DMS8 whole entry): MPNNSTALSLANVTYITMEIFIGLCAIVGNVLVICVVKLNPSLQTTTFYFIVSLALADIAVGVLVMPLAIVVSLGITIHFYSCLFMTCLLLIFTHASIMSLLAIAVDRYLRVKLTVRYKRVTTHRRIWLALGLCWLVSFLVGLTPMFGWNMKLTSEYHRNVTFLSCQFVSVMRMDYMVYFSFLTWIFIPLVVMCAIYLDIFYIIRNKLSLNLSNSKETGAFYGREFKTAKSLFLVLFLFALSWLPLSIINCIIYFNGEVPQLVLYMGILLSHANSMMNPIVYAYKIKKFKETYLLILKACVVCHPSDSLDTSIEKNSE

[15] = target: Endothelin-1 receptor (Homo sapiens) (UniProt P25101); experiment: Displacement of [125I]endothelin-1 from recombinant full length human recombinant ETA receptor expressed in CHO-S cells assessed as residual binding level for radioligand at 10 uM measured after 120 mins by radiometric scintillation analysis relative to control; type: cell-based
Rattus norvegicus [16] = species: Rattus norvegicus; experiment: Displacement of [3H]Muscimol from GABAA channel muscimol binding site in Wistar rat brain assessed as residual binding level for radioligand at 10 uM incubated for 10 mins by scintillation counting analysis relative to control; type: tissue-based
Rattus norvegicus [17] = species: Rattus norvegicus; experiment: Displacement of [3H]-MDL105519 from NMDA glutamate receptor glycine binding site in Wistar rat brain assessed as residual binding level for radioligand at 10 uM incubated for 30 mins by scintillation counting analysis relative to control; type: tissue-based
[18] = target: Histamine H1 receptor (Homo sapiens) (UniProt P35367); experiment: Displacement of [3H]pyrilamine from full length recombinant human histamine H1 receptor expressed in CHO-K1 cells assessed as residual binding level for radioligand at 10 uM after 180 mins by scintillation counting analysis relative to control; type: cell-based
Histamine H1 receptor (Homo sapiens), sequence (P35367 whole entry): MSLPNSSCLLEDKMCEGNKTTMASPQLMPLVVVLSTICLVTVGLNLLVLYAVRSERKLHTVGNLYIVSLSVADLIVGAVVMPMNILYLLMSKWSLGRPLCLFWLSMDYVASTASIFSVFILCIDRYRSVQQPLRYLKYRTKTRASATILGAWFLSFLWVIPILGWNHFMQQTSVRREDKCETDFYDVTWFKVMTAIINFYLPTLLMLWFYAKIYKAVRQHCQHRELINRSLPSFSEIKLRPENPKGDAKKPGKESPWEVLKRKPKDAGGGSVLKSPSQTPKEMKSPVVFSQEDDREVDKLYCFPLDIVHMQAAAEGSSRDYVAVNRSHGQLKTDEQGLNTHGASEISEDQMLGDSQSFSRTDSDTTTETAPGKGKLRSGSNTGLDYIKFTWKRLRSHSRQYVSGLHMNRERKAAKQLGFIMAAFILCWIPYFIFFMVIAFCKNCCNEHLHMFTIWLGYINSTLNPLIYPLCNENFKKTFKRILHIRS

[19] = target: Histamine H2 receptor (Homo sapiens) (UniProt P25021); experiment: Displacement of [125I]aminopotentidine full length recombinant human histamine H2 receptor expressed in CHO-K1 cells assessed as residual binding level for radioligand at 10 uM after 120 mins by scintillation counting analysis relative to control; type: cell-based
Histamine H2 receptor (Homo sapiens), sequence (P25021 whole entry): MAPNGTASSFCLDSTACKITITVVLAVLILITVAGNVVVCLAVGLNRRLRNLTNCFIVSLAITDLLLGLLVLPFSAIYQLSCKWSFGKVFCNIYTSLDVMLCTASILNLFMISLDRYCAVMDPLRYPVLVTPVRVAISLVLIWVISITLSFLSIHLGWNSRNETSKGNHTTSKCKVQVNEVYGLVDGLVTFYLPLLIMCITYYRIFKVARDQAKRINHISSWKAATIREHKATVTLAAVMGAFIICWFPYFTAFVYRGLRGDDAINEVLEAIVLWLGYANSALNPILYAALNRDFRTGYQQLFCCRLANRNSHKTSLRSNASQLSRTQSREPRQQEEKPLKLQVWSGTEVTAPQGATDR

Rattus norvegicus [20] = species: Rattus norvegicus; experiment: Displacement of [3H]-idazoxan from imidazoline I2 receptor in Wistar rat brain assessed as residual binding level for radioligand at 10 uM incubated for 30 mins by scintillation counting analysis relative to control; type: tissue-based
[21] = target: Muscarinic acetylcholine receptor M2 (Homo sapiens) (UniProt P08172); experiment: Displacement of [3H]N-Methylscopolamine from full length human recombinant muscarinic M2 receptor expressed in CHO-K1 cells assessed as residual binding level for radioligand at 10 uM measured after 120 mins by radiometric scintillation analysis relative to control; type: cell-based
Muscarinic acetylcholine receptor M2 (Homo sapiens), sequence (P08172 whole entry): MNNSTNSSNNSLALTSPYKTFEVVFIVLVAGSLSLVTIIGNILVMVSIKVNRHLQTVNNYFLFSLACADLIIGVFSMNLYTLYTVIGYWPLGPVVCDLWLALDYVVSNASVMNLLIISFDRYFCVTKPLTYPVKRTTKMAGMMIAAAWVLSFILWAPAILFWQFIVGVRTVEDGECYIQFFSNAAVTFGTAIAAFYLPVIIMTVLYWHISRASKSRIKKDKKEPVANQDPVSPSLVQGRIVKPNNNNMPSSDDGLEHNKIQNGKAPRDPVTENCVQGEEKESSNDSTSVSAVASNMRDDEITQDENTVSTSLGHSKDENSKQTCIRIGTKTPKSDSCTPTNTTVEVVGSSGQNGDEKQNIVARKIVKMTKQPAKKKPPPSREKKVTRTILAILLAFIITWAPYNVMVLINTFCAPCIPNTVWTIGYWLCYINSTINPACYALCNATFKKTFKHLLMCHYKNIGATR

HIT-T15 = experiment: Displacement of [3H]glyburide from KATP receptor in HIT-T15 Syrian hamster pancreatic B cell membranes assessed as residual binding level for radioligand at 10 uM after 120 mins by radiometric scintillation analysis relative to control; type: tissue-based; details: Mesocricetus auratus
[22] = target: 5-hydroxytryptamine receptor 3A (Homo sapiens) (UniProt P46098); experiment: Displacement of [3H]GR-65630 from full length human recombinant 5HT3 receptor expressed in HEK293 cells assessed as residual binding level for radioligand at 10 uM measured after 60 mins by radiometric scintillation analysis relative to control; type: cell-based
[23] = target: Sodium-dependent serotonin transporter (Homo sapiens) (UniProt P31645); experiment: Displacement of [3H]paroxetine from full length recombinant human SET expressed in HEK293 cells assessed as residual binding level for radioligand at 10 uM after 60 mins by radiometric scintillation analysis relative to control; type: cell-based
[24] = target: P2X receptor (Rattus norvegicus) (UniProt P51579+P49653+P51578+Q64663+P47824+P51577+P49654); experiment: Displacement of [3H] alpha, beta-Methylene-ATP from P2X receptor in Wistar rat urinary bladder assessed as residual binding level for radioligand at 10 uM incubated for 120 mins by liquid scintillation counting method relative to control; type: tissue-based
[25] = target: Glutamate NMDA receptor (Rattus norvegicus) (UniProt P35439+Q00959+Q00960+Q00961+Q62645+Q8VHN2+Q9R1M7); experiment: Displacement of [3H]MDL 105,519 from glutamate NMDA receptor glycine binding site in Wistar rat cerebral cortical membranes assessed as residual binding level for radioligand at 10 uM incubated for 30 mins by radiometric scintillation analysis relative to control; type: tissue-based; details: Cerebral cortex
[26] = Unbound brain-to-plasma concentration ratio in cynomolgus monkey; type: ADME, Macaca fascicularis; details: read-out: K(p,uu,brain)

## COc1nnc2sc(C(=O)NC3CN(c4ncc(C(F)(F)F)cn4)C3)c(N)c2c1C
[1]
  EC50: > 30000 nM
[2]
  CLH: 30.5 mL/min/kg
[3]
  Kp uu at 0.25 h: 0.73
P-gp
  efflux ratio: 1.6
[4]
  solubility: 18 µM (≈ 7.91 µg/mL)
[5]
  EC50: 28 nM
[6]
  EC50: 87 nM
Cytochrome P450 1A2
  IC50: > 30000 nM
[7]
  half-life: 2.8 h
[8]
  Vd: 0.74 L/kg
[9]
  Activity: > 50%
[10]
  Activity: > 50%
[11]
  Activity: > 50%
[12]
  Activity: > 50%
[13]
  Activity: > 50%
[14]
  Activity: > 50%
[15]
  Activity: > 50%
Rattus norvegicus [16]
  Activity: > 50%
Rattus norvegicus [17]
  Activity: > 50%
[18]
  Activity: > 50%
[19]
  Activity: > 50%
Rattus norvegicus [20]
  Activity: > 50%
[21]
  Activity: > 50%
HIT-T15
  Activity: > 50%
[22]
  Activity: > 50%
[23]
  Activity: > 50%
[24]
  Activity: > 50%
[25]
  Activity: > 50%
[26]
  Kp uu: 1.5

Source: ChEMBL document CHEMBL4665653, “VU6005806/AZN-00016130, an advanced M positive allosteric modulator (PAM) profiled as a potential preclinical development candidate” (Bioorg Med Chem Lett, 2019)
